The subject of assay [1] is female hooded-Lister rats. Kind of assay: Novel object recognition (NOR) task, sub-chronic PCP-induced cognitive deficit. Format: in vivo, rat. The conditions noted are these: 0.2 mg/kg risperidone i.p.; sub-chronic PCP rats; did not reach statistical significance; FIG. 3. An excerpt:
Certain pre-clinical tests allow the observation of relatively subtle cognitive deficits in the rat that resemble cognitive symptoms in subjects with schizophrenia. The cognitive deficits observed are seen in behaviours such as working memory deficits which may be measured by recognition tasks such as the novel object recognition (NOR) paradigm. A recognition memory task allows the comparison between presented stimuli and previously stored information. Ennaceur & Delacour, Behav. Brain Res. 31: 47-59 (1988) described the NOR test in rats which was based on the differential exploration of familiar and new objects. The NOR test is a non-rewarded, ethologically relevant paradigm based on the spontaneous exploratory behaviour of rats which measures working memory. Each session consists of two trials. In the first trial, the rats are exposed to two identical objects in an open field. During the second trial, rats are exposed to two dissimilar objects, one familiar object from the first trial and one new object. Object recognition in rats can be measured as the difference in time spent exploring the familiar and the new object.
The abovementioned rodent model was used to assess the effects of the Isomer A on sub-chronic PCP-induced deficits in working memory using the novel object recognition (NOR) paradigm. The working hypothesis was that both acute and sub-chronic treatment with Isomer A will attenuate the selective working memory deficit induced by sub-chronic PCP as measured in the NOR test paradigm.
Rats are allowed to habituate to the empty test box and the behavioural test room environment for 1 hour on day 1. Prior to behavioural testing on day 2 rats are given a further 3 minutes habituation.
Following the 3 minute habituation period, the rats are given two 3 minute trials (T1 and T2) which are separated by a 1 minute inter-trial interval in the home cage during which the objects are changed.
In this trial, the animals are allowed to explore two identical objects (A1 and A2) for 3 minutes.
In this trial, the animals explore a familiar object (A) from T1 and a novel object (B) for 3 minutes. The familiar object presented during T2 is a duplicate of the object presented in T1 in order to avoid any olfactory trails.
The object exploration is defined by animals licking, sniffing or touching the object with the forepaws whilst sniffing, but not leaning against, turning around, standing or sitting on the object. The exploration time (s) of each object (A1, A2, A and B) in each trial are recorded using two stopwatches and the following factors are calculated: • Total exploration time of both objects in the acquisition trial (s). • Total exploration time of both objects in the retention trial (s). • Habituation of exploratory activity. The LMA includes the exploration time, as measured by the number of lines crossed, for both the trials. • Discrimination index, which is calculated as shown below;
(time spent exploring novel object−time spent exploring familiar object)÷total time spent in exploring the objects
Behaviour in all trials was recorded on video for subsequent blind scoring.
50 female hooded-Lister rats (Harlan, UK) were used as subjects for these studies. Rats were housed in groups of 5 under standard laboratory conditions under a 12 hr light:dark cycle, lights on at 0700 hr. All testing was carried out in the light phase. Food and water were freely provided. […]

For assay [2], the system named is female hooded-Lister rats. The conditions noted are these: risperidone; Grayson et al; cited from earlier work.

As to `Cc1nc2n(c(=O)c1CCN1CCC(c3noc4cc(F)ccc34)CC1)CCCC2` [risperidone, reference compound], the “Discrimination index (DI)” value in assay [1] is “improved”. For the same compound, the “Sub-chronic PCP-induced deficit in NOR paradigm” value in assay [2] is “efficacy of risperidone to attenuate”.

The values are drawn from patent US20110257220A1, “3,11 b-cis-Dihydrotetrabenazine for the Treatment of Schizophrenia and Other Psychoses” (CAMBRIDGE LABORATORIES (IRELAND) LIMITED, priority 2005, published 2011).
